From US10064861B2, “Macrocyclic pyridazinone derivatives” (Merck Patent GmbH, priority 2013, dated 2018)

Legend:
[1] = target: IRAK1 (Homo sapiens (Human), UniProt P51617); assay: IRAK1 enzymatic assay; format: biochemical; settings: His-TEV-IRAK-1, ATP 1 μM, 3 hours at 30° C.
Procedure: IRAK1 is a human purified recombinant enzyme (His-TEV-IRAK1 (194-712)) In this assay, IRAK-1 hydrolyses ATP and autophosphorylates.
Measurement of IRAK-1 inhibition is performed in streptavidin coated 384 well FlashPlate (PerkinElmer #SMP410A).
His-TEV-IRAK-1 (15 ng/well), ATP (1 μM, [^33P]ATP 0.25 μCi/well) and compounds in DMSO (range of concentrations from 20 μM to 1 nM) or controls (2% DMSO) are incubated for 3 hours at 30° C. in assay buffer: Hepes pH 7.0 50 mM, Fatty acid-free BSA 0.1%, Dithiothreitol DTT 2 mM, MgCl2 10 mM, EGTA 0.5 mM, Triton-X-100 0.01%. Kinase reaction is stopped by addition of EDTA. Supernatant is discarded, plates are washed three times with 150 mM NaCl and radioactivity is then measured in a Microbeta Trilux reader.

[2] = target: IRAK4 (Homo sapiens (Human), UniProt Q9NWZ3); assay: IRAK4 enzymatic assay; format: biochemical; settings: His-TEV-IRAK4, ATP 2 μM, STK1-biotin peptide 300 nM, 3 hours at 30° C.
Procedure: IRAK4 is a human purified recombinant enzyme (His-TEV-IRAK1 (194-712) IRAK4 hydrolyses ATP, autophosphorylates and phosphorylates a Serine/Threonine generic peptidic substrate (STK: 61ST1BLC from CisBio International based in Bagnols/Cèze FR).
Measurement of IRAK-4 inhibition is performed in streptavidin coated 384 well FlashPlate (PerkinElmer #SMP410A). His-TEV-IRAK4 (20 ng/well), ATP (2 μM, [^33P]ATP 0.25 μCi/well), STK1-biotin peptide (300 nM) and compounds in DMSO (range of concentrations from 20 μM to 1 nM) or controls (2% DMSO) are incubated for 3 hours at 30° C. in assay buffer: Hepes pH 7.0 50 mM, Fatty acid-free BSA 0.1%, Dithiothreitol DTT 2 mM, MgCl2 10 mM, EGTA 0.5 mM, Tween-20 0.01%, MnCl2 5 mM.
Kinase reaction is stopped by addition of EDTA. Supernatant is discarded, plates are washed three times with 150 mM NaCl and radioactivity is then measured in a Microbeta Trilux reader.

[3] = system: TLR7 induced IL-6 secretion in human mononuclear cells (PBMC's); assay: TLR7 induced IL-6 in human PBMC's; format: cell-based; settings: TLR7 specific ligand 2 uM overnight, IL-6 AlphaLISA
Procedure: TLR7 Induced IL-6 in Human PBMC's
Human PBMC assay is used as one of the functional assay to monitor the activity of IRAK1 and IRAK4 small molecule inhibitors on TLR7 induced IL-6 secretion in human mononuclear cells (PBMC's). Human PBMCs are prepared from buffy coats (whole blood enriched with leukocytes and platelets) obtained from healthy volunteers used either fresh or frozen are plated in assay media (RPMI+2% P/S/L-glu+10% HI-FBS) and pre-treated with compounds in DMSO/media (range of concentrations from 25 μM to 0.4 nM) or controls (0.25% DMSO) for 30 minutes at 37° C. in assay media. Following pre-treatment with IRAK1 and IRAK4 inhibitors, PBMC's are stimulated with TLR7 specific ligand (2 uM) overnight (16-18 hrs) at 37° C. After incubation supernatant is transferred to 384 well PE AlphaPlate-384 (6005350) and IL-6 is quantified using Perkin Elmer IL-6 Alpha LISA kit (AL223C). Plates are read on an Envision® plate reader with Alpha Technology®.

Chain of IRAK4 (Q9NWZ3 whole entry): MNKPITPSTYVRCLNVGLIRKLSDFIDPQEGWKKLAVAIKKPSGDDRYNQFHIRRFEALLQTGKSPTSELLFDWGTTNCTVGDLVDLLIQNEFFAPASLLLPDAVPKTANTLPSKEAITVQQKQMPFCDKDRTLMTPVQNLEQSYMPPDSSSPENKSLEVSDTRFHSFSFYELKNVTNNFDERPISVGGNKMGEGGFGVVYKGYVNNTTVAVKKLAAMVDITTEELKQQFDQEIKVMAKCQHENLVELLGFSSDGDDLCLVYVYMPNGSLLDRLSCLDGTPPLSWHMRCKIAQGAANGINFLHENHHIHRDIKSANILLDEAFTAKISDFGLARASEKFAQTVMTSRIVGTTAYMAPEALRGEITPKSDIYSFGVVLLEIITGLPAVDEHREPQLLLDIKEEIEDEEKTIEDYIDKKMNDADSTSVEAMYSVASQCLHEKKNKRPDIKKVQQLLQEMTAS
Chain of IRAK1 (P51617 194-712): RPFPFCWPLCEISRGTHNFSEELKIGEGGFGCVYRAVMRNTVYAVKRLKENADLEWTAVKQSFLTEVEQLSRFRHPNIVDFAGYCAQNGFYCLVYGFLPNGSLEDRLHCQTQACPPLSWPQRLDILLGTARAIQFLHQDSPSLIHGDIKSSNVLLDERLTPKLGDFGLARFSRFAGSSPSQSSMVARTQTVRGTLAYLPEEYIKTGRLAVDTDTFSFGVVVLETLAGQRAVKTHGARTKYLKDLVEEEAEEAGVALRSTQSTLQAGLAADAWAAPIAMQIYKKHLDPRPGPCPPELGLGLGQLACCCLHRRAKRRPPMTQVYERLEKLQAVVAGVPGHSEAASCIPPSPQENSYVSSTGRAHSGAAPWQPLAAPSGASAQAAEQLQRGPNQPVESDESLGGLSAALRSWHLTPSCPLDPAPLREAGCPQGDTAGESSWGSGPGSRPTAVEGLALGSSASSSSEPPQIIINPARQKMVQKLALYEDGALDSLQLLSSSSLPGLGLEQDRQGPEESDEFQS

| Structure (SMILES) | IC50 [1] [nM] | IC50 [2] [nM] | IC50 [3] [nM] |
| --- | --- | --- | --- |
| O=C1Nc2nc3ccccc3n2C[C@H](O)[C@@H]2CCCN(C2)c2ccc(=O)n(n2)Cc2cccc1c2 (stereo in doubt) [Compound 32a, 25-hydroxy-1,6,14,16,23,32-hexaazahexacyclo[24.3.1.1^2,6.1^8,12.0^15,23.0^17,22]dotriaconta-2(32),3,8(31),9,11,15,17(22),18,20-nonaene-5,13-dione] | < 100 | < 100 | 100 to 1000 |
| O=C1Nc2nc3ccccc3n2C[C@H](O)[C@H]2CCCN(C2)c2ccc(=O)n(n2)Cc2cccc1c2 (stereo in doubt) [Compound 32b, 25-hydroxy-1,6,14,16,23,32-hexaazahexacyclo[24.3.1.1^2,6.1^8,12.0^15,23.0^17,22]dotriaconta-2(32),3,8(31),9,11,15,17(22),18,20-nonaene-5,13-dione] | < 100 | < 100 | 100 to 1000 |
| Cc1cc(=O)n2nc1-c1cccc(c1)Cn1c(nc3ccccc31)NC(=O)c1cccc(c1)C2 [Compound 4, 28-Methyl-8,15,17,25,29-pentaazahexacyclo[23.3.1.1^2,61^19,230^8,160^9,14]hentriaconta-1(29),2(31),3,5,9(14),10,12,15,19(30),20,22,27-dodecaene-18,26-dione] | < 100 | 100 to 1000 | – |
| O=C1Nc2nc3cc(F)c(F)cc3n2Cc2cccc(c2)-c2ccc(=O)n(n2)Cc2cccc1c2 [Compound 6, 11,12-difluoro-8,15,17,25,29-pentaazahexacyclo[23.3.1.1^2,6.1^9,23.0^8,16.0^9,14]hentriaconta-1(29),2(31),3,5,9(14),10,12,15,19(30),20,22,27-dodecaene-18,26-dione] | < 100 | 100 to 1000 | – |
| O=C1Nc2nc3ccccc3n2Cc2cncc(c2)-c2ccc(=O)n(n2)Cc2cccc1c2 [Compound 7, 4,8,15,17,25,29-hexaazahexacyclo[23.3.1.1^2,6.1^19,23.0^8,16.0^9,14]hentriaconta-1(29),2(31),3,5,9(14),10,12,15,19(30),20,22,27-dodecaene-18,26-dione] | – | < 100 | < 100 |
| O=C1Nc2nc3ccccc3n2CCOc2cccc(c2)-c2ccc(=O)n(n2)Cc2cccc1c2 [Compound 9, 26-oxa-6,14,16,23,33-pentaazahexacyclo[25.3.1.12,6,1^8,12}0^15,23.0^17,22]tritriaconta-1(31),2(33),3,8,10,12(32),15,17,19,21,27,29-dodecaene-5,13-dione] | < 100 | 100 to 1000 | – |
| O=C1Nc2nc3ccccc3n2Cc2ccc(F)c(c2)-c2ccc(=O)n(n2)Cc2cccc1c2 [Compound 10, 3-Fluoro-8,15,17,25,29-pentaazahexacyclo[23.3.1.1^2,61^19,230^8,160^9,14]hentriaconta-1(29),2(31),3,5,9(14),10,12,15,19(30),20,22,27-dodecaene-18,26-dione] | < 100 | 100 to 1000 | – |
| Cc1cc(=O)n2nc1-c1cccc(c1)CCn1c(nc3ccccc31)NC(=O)c1cccc(c1)C2 [Compound 11, 3-methyl-6,14,16,23,32-pentaazahexacyclo[24.3.1.1^2,6.1^8,12.0^15,23.017,22]dotriaconta-1(30),2(32),3,8,10,12(31),15,17,19,21,26,28-dodecaene-5,13-dione] | < 100 | < 100 | – |
| O=C1Nc2nc3ccccc3n2Cc2ccc(Cl)c(c2)-c2ccc(=O)n(n2)Cc2cccc1c2 [Compound 13, 3-chloro-8,15,17,25,29-pentaazahexacyclo[23.3.1.1^2,6.1^19,23.0^8,16.0^9,14]hentriaconta-1(29),2(31),3,5,9(14),10,12,15,19(30),20,22,27-dodecaene-18,26-dione] | < 100 | 100 to 1000 | – |
| O=C1Nc2nc3ccccc3n2CCn2cc(cn2)-c2ccc(=O)n(n2)Cc2cccc1c2 [Compound 14, 4,6,8,15,17,25,29-heptaazahexacyclo[23.3.1.12,5.119,23.08,16.09,14]hentriaconta-1(29),2(31),3,9(14),10,12,15,19(30),20,22,27-undecaene-18,26-dione] | – | – | 100 to 1000 |
| COc1ccc2cc1-c1ccc(=O)n(n1)Cc1cccc(c1)C(=O)Nc1nc3ccccc3n1C2 [Compound 15, 3-methoxy-8,15,17,25,29-pentaazahexacyclo[23.3.1.1^2,6.1^19,23.0^8,16.0^9,14]hentriaconta-1(29),2(31),3,5,9(14),10,12,15,19(30),20,22,27-dodecaene-18,26-dione] | < 100 | < 100 | – |
| COc1ccc2cc1Cn1c(nc3ccccc31)NC(=O)c1cccc(c1)Cn1nc-2ccc1=O [Compound 19, 5-methoxy-8,15,17,25,29-pentaazahexacyclo[23.3.1.1^2,6.1^19,23.0^8,16.0^9,14]hentriaconta-1(29),2(31),3,5,9(14),10,12,15,19(30),20,22,27-dodecaene-18,26-dione] | 100 to 1000 | < 100 | – |
| COc1cc2nc3n(c2cc1OC)CCn1cc(cn1)-c1ccc(=O)n(n1)Cc1cccc(c1)C(=O)N3 [Compound 22] | < 100 | < 100 | – |
| NCCc1ccc2c(c1)nc1n2Cc2cccc(c2)-c2ccc(=O)n(n2)Cc2cccc(c2)C(=O)N1 [Compound 23] | < 100 | < 100 | – |
| CC1c2cccc(c2)C(=O)Nc2nc3ccccc3n2Cc2cccc(c2)-c2ccc(=O)n1n2 (stereo not drawn) [Compound 24] | < 100 | < 100 | – |
| Cc1cc(=O)n2nc1-c1cnn(c1)CCn1c(nc3ccccc31)NC(=O)c1cccc(c1)C2 [Compound 26] | < 100 | < 100 | – |
| O=C1Nc2nc3cc(CN4CCOCC4)ccc3n2Cc2cccc(c2)-c2ccc(=O)n(n2)Cc2cccc1c2 [Compound 27] | < 100 | < 100 | – |
| Cc1nn2c(C)c1-c1ccc(=O)n(n1)Cc1cccc(c1)C(=O)Nc1nc3ccccc3n1CC2 [Compound 28] | 100 to 1000 | 100 to 1000 | – |
| COc1ccc2c(c1)nc1n2Cc2cccc(c2)-c2ccc(=O)n(n2)Cc2cccc(c2)C(=O)N1 [Compound 29] | < 100 | < 100 | – |
| Cc1cc(=O)n2nc1OCCC(O)Cn1c(nc3ccccc31)NC(=O)c1cccc(c1)C2 (stereo not drawn) [Compound 30] | < 100 | < 100 | – |
| O=C1Nc2nc3cc(O)ccc3n2Cc2cccc(c2)-c2ccc(=O)n(n2)Cc2cccc1c2 [Compound 31] | < 100 | 100 to 1000 | – |
| COc1ccc2c(c1)nc1n2CCn2cc(cn2)-c2ccc(=O)n(n2)Cc2cccc(c2)C(=O)N1 [Compound 33] | < 100 | < 100 | – |
| O=C1Nc2nc3ccccc3n2C/C=C\COc2ccc(=O)n(n2)Cc2cccc1c2 [Compound 34] | < 100 | < 100 | – |
| COc1ccc2c(c1)nc1n2CC(O)CCOc2ccc(=O)n(n2)Cc2cccc(c2)C(=O)N1 (stereo not drawn) [Compound 35] | < 100 | < 100 | – |
| CC[C@H]1c2cccc(c2)C(=O)Nc2nc3ccccc3n2Cc2cccc(c2)-c2ccc(=O)n1n2 [Compound 36a, 24-ethyl-8,15,17,26,29-pentaazahexacyclo[23.3.1.1^2,6.1^19,23.0^8,16.0^9,14]hentriaconta-1(29),2(31),3,5,9(14),10,12,15,19,21,23(30),27-dodecaene-18,26-dione] | < 100 | < 100 | – |
| CC[C@@H]1c2cccc(c2)C(=O)Nc2nc3ccccc3n2Cc2cccc(c2)-c2ccc(=O)n1n2 [Compound 36b, 24-ethyl-8,15,17,26,29-pentaazahexacyclo[23.3.1.1^2,6.1^19,23.0^8,16.0^9,14]hentriaconta-1(29),2(31),3,5,9(14),10,12,15,19,21,23(30),27-dodecaene-18,26-dione] | < 100 | 100 to 1000 | – |
| COc1ccc2cc1CCn1c(nc3ccccc31)NC(=O)c1cccc(c1)Cn1nc-2ccc1=O [Compound 37] | < 100 | < 100 | – |
| O=C1Nc2nc3ccccc3n2CCc2cc(ccc2O)-c2ccc(=O)n(n2)Cc2cccc1c2 [Compound 38] | < 100 | < 100 | – |
